Earlier results on five compounds are cited in patent US7829124B2, “Use of Phyllanthus constituents for treating or preventing infections caused by hepatitis B-viruses” (priority 2001, dated 2010).

Series [1] addresses T1, cAMP-dependent protein kinase of the rat liver (Rattus norvegicus, UniProt P27791).
T1 construct: the cAMP-dependent protein kinase of the rat liver; host or cells: rat liver

The test system of series [2] is CA^2+- and phopholipid-dependent protein kinase C (PKC) of the rat brain.
The test system of series [3] is CA^2+-dependent protein kinase of the wheat embryo.
The subject of series [4] is Bacillus subtilis. Particulars: 0.1 ml; extract 50 mg/ml, streptomycin 10 mg/ml.
The test system of series [5] is Staphylococcus aureus. Particulars: 0.1 ml; extract 50 mg/ml, streptomycin 10 mg/ml.
Series [6] concerns HBV. Particulars: chronically infected patients.

Regarding `O=C1OC2C3OC(=O)C4=CC(=O)C5(O)Oc6c(O)c(O)cc(c6C4C5(O)O)C(=O)OC2C(OC(=O)c2cc(O)c(O)c(O)c2)OC3COC(=O)c2cc(O)c(O)c3c2C2C1=CC(=O)C(O)(O3)C2(O)O` (stereo not shown) [amariin], the “inhibition of cAMP-dependent protein kinase” value in series [1] is on record as “most effective”. For the same compound, the “inhibition of protein kinase C (PKC)” value in series [2] is reported as “most effective”. Moreover, the “inhibition of CA^2+-dependent protein kinase” value in series [3] was “most effective”.
In the case of `O=C1O[C@H]2[C@@H]3OC(=O)c4cc(O)c(O)c(O)c4-c4c(cc(O)c(O)c4O)C(=O)OC[C@H]2O[C@@H](OC(=O)c2cc(O)c(O)c(O)c2)[C@@H]3OC(=O)c2cc(O)c(O)c3c2[C@@H]2C1=CC(=O)[C@](O)(O3)C2(O)O` [geraniin], the “inhibition of cAMP-dependent protein kinase” value in series [1] is listed as “most effective”. Moreover, the “inhibition of protein kinase C (PKC)” value in series [2] is “most effective”. Moreover, the “inhibition of CA^2+-dependent protein kinase” value in series [3] is given as “most effective”.
Regarding `[H]/N=C(/N)N[C@H]1[C@H](O)[C@@H](O)[C@H](O[C@@H]2O[C@@H](C)[C@](O)(C=O)[C@H]2O[C@@H]2O[C@@H](CO)[C@H](O)[C@@H](O)[C@@H]2NC)[C@@H](N/C(N)=N\[H])[C@@H]1O` [streptomycin], the inhibition zone in series [4] and in series [5] was 35 mm throughout.
Turning to interferon α, in series [6], the “cases in which the virus is eliminated from the liver” value is given as 20-30% and the “further cases with clearly reduced number of viruses in the blood” value was 30%.
As to phenazine-derivative of the geraniin, the “inhibition of cAMP-dependent protein kinase” value in series [1] was “most effective”. The “inhibition of protein kinase C (PKC)” value in series [2] is “most effective”. Also, the “inhibition of CA^2+-dependent protein kinase” value in series [3] is “most effective”.
